≈ marks a conversion by molar mass, not a printed value. Where “and” joins values, the source holds several entries; their conditions need not be identical. Identical values can stand only once. Like-named read-outs stand apart in the source and are kept apart here.
How the values were obtained:
wild-type (WT) BlaC [1] = biological target: T1, wild-type (WT) BlaC (Mycobacterium tuberculosis, UniProt P9WKD3); format: biochemical; conditions: pH 6.4
T1 construct: 6xHis tag with TEV cleavage site (N); made in house; host or cells: E. coli BL21 (DE3) pLysS
T1 sequence (P9WKD3 35-307): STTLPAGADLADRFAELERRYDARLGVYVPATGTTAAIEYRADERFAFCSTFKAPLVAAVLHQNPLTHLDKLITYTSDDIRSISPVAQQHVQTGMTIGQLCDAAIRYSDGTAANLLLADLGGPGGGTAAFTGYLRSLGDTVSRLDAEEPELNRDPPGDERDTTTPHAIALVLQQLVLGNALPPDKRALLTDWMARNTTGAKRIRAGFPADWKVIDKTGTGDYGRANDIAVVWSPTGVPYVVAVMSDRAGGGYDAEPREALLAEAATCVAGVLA

wild-type (WT) BlaC [2] = biological target: T1, wild-type (WT) BlaC; parameters: method as in Radojković, Chikunova, et al., [2025]; conditions: 100 mM NaPi, pH 6.4, 25°C, ref Radojković, Chikunova, et al., [2025]; cited from earlier work
[3] = system: E. coli KA797 cells producing wild-type BlaC; test: Minimum inhibitory concentration determination; format: cell-based; conditions: Escherichia coli
Procedure: (§1) The MIC was determined for E. coli KA797 cells carrying various pUK21‐blaC plasmids with the lac promoter and tat‐signal peptide upstream of the blaC gene (Figure S7) (Radojković, van Ingen, et al., [2025]). Overnight cultures of E. coli were inoculated into fresh LB medium with 50 μg/mL kanamycin and incubated at 37°C until OD600 reached 2. […] The concentration of the selection antibiotic was increased in 2‐fold increments. The plate was incubated for 16 h at 37°C in a Bioscreen C Pro plate reader with continuous shaking, and the OD600 was recorded every 15 min. The MIC was defined as the concentration of the selection antibiotic at which no increase in OD600 was observed.

[4] = system: E. coli KA797 cells, pUK21 vector without blaC gene; test: Minimum inhibitory concentration determination; format: cell-based; conditions: Escherichia coli, 16 h, 37°C, read-out: MIC carbenicillin
Procedure: as §1

[5] = system: E. coli KA797 cells producing BlaC I105Y; format: cell-based
[6] = system: E. coli KA797 cells producing BlaC S130G; format: cell-based
[7] = system: E. coli KA797 cells producing BlaC I105Y-S130G; format: cell-based
[8] = system: E. coli KA797 cells producing BlaC I105G; format: cell-based
[9] = system: E. coli KA797 cells producing BlaC G132N; format: cell-based
[10] = system: E. coli KA797 cells producing BlaC I105G-G132N; format: cell-based
wild-type BlaC = biological target: T2, wild-type BlaC (Mycobacterium tuberculosis, UniProt P9WKD3); format: biochemical
T2 construct: 6xHis tag with TEV cleavage site (N); made in house; host or cells: E. coli BL21 (DE3) pLysS
T2 sequence (P9WKD3 35-307): T1 sequence (P9WKD3 35-307)

[11] = in combination with carbenicillin at 50 μg/mL

## CC1(C)S[C@@H]2[C@H](NC(=O)[C@H](N)c3ccccc3)C(=O)N2[C@H]1C(=O)O [Ampicillin, ampicillin]
wild-type (WT) BlaC [1]
  KMapp: 46 ± 12 µM
  k cat /K M ^app relative to the wild-type: 1
  kcat: 9 ± 1 s⁻¹
  kcat/KMapp: 210000 ± 10000 M⁻¹ s⁻¹
  kcat/KMapp relative to the wild-type: 1
wild-type (WT) BlaC [2]
  K M ^app: 68 ± 3 µM
  k cat: 14 ± 2 s⁻¹
  k cat/K M ^app: 0.21 ± 0.01 μM^−1 s^−1 and 0.21 ± 0.01 ^a μM^−1 s^−1

## CC1(C)S[C@@H]2[C@H](NC(=O)C(C(=O)O)c3ccccc3)C(=O)N2[C@H]1C(=O)O (stereo partly shown) [Carbenicillin, carbenicillin]
wild-type (WT) BlaC [1]
  k cat /K M ^app relative to the wild-type: 1
[3]; 16 h, 37°C, read-out: MIC carbenicillin
  MIC: 800 µg/mL (≈ 2110 µM)
[4]
  MIC: 10 µg/mL (≈ 26.4 µM)
[5]; 16 h, 37°C
  MIC carbenicillin: 6400 µg/mL (≈ 16900 µM)
[6]; 16 h, 37°C
  MIC carbenicillin: 100 µg/mL (≈ 264 µM)
[7]; 16 h, 37°C
  MIC carbenicillin: 800 µg/mL (≈ 2110 µM)
[8]; 16 h, 37°C
  MIC carbenicillin: 800 µg/mL (≈ 2110 µM)
[9]
  MIC times lower than the wild-type: 2 times
[9]; 16 h, 37°C
  MIC carbenicillin: 400 µg/mL (≈ 1060 µM)
[10]; 16 h, 37°C
  MIC carbenicillin: 800 µg/mL (≈ 2110 µM)
wild-type (WT) BlaC [2]
  K M ^app: 5.5 ± 0.7 µM
  k cat: 0.51 ± 0.02 s⁻¹
  k cat/K M ^app: 0.09 ± 0.01 ^a μM^−1 s^−1

## O=C(O)[C@H]1/C(=C/CO)O[C@@H]2CC(=O)N21 [Clavulanic acid, clavulanic acid]
[3]; read-out: MIC clavulanic acid, in combination with carbenicillin at 50 μg/mL
  MIC: 1 µg/mL
[5]; [11]
  MIC clavulanic acid: 2 µg/mL
[6]; [11]
  MIC clavulanic acid: 4 µg/mL
[7]; [11]
  MIC clavulanic acid: 32 µg/mL
[8]; [11]
  MIC clavulanic acid: 4 µg/mL
[9]; [11]
  MIC clavulanic acid: 1 µg/mL
[10]; [11]
  MIC clavulanic acid: 16 µg/mL
wild-type BlaC
  incubation time after which the enzyme reaches its original activity again: 2 h
  time to full inhibition of the enzyme: < 5 min

## O=C(Cc1cccs1)N[C@@H]1C(=O)N2C(C(=O)O)=C(/C=C/c3ccc([N+](=O)[O-])cc3[N+](=O)[O-])CS[C@H]12 [Nitrocefin, nitrocefin]
wild-type (WT) BlaC [1]
  K M ^app: 180 ± 70 µM
  k cat: 90 ± 20 s⁻¹
  k cat /K M ^app relative to the wild-type: 1
  k cat/K M ^app: 0.5 ± 0.2 ^a μM^−1 s^−1
